# Source: publication PMC9993459, “A novel selective spleen tyrosine kinase inhibitor SKI-O-703 (cevidoplenib) ameliorates lupus nephritis and serum-induced arthritis in murine models” (Clinical and Experimental Immunology, 2022)
# Tests used:
# KOR = experiment: Kinase assay (LANCE Ultra TR-FRET), KOR; type: biochemical
# Method: (§1) Kinase assays were conducted in 384-well plates using LANCE ultra 66 time-resolved fluorescence resonance energy transfer (TR-FRET) methods, according to the manufacturer’s instructions (Perkin-Elmer). In brief, each kinase was pre-incubated with a serially diluted compound for 30 min, incubated with ULight poly-GT peptide substrate and ATP for up to 1 h. Thirty minutes after adding Eu-labeled anti-phosphopeptides Ab diluted in LANCE Detection Buffer, LANCE signals were measured with an EnVision multilabel reader (Perkin-Elmer).
# FGFR2 = FGFR2 (Homo sapiens, UniProt P21802); experiment: Kinase assay (LANCE Ultra TR-FRET), FGFR2; type: biochemical
# Chain of FGFR2 (P21802 22-821, species assumed): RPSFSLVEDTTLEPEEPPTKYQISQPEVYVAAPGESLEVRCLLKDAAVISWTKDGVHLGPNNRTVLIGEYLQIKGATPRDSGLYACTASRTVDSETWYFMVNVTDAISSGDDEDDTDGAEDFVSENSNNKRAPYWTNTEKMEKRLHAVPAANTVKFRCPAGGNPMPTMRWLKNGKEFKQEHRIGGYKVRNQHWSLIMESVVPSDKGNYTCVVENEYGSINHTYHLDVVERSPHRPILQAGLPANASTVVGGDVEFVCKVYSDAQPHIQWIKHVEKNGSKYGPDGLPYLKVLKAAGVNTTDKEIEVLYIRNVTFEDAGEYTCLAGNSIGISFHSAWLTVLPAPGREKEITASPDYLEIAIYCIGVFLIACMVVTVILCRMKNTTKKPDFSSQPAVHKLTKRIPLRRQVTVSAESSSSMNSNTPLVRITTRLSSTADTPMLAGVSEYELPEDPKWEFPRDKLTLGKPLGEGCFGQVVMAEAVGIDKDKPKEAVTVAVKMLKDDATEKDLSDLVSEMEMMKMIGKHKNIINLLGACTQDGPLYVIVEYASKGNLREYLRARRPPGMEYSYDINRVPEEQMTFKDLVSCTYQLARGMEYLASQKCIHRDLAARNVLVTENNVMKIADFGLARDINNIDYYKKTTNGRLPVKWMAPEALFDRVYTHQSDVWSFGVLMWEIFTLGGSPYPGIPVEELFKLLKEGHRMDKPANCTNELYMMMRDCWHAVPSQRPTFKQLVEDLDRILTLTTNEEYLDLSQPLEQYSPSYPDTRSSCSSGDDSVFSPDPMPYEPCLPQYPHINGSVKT
# Method: as §1
# [1] = biological target: T1, phosphorylated Syk (p-Syk) in THP-1 cells (Homo sapiens, UniProt P43405); experiment: p-Syk ELISA in IgG-stimulated THP-1 cells (FcγR signal); type: cell-based
# T1 construct: endogenous in cells; host or cells: Ramos (ATCC), THP-1 (ATCC), human CD14+ monocytes (Lonza)
# Method: THP-1 and Ramos cell lines and human CD14^+ monocytes were purchased from the American Type Culture Collection (ATCC) and Lonza, respectively. After treatment with Syk inhibitors for 1 h, THP-1 cells and monocytes were stimulated for 15 min with 100 μg/ml human IgG (Invitrogen), and Ramos cells were stimulated with 2 μg/ml anti-human IgM monoclonal Ab (mAb) (Bathyl). Cells were lysed in RIPA buffer containing 1% NP-40, 1% sodium deoxycholate, 0.1% SDS, and a mixture of protease and phosphatase inhibitors (Thermo Scientific). The lysates were assayed by standard immunoblotting methods and ELISA. Primary Abs used for immunoblotting were anti-phospho-Syk ([…]), anti-phospho-Vav (Y174), anti-phospho-PLCγ1 (Y1217) and anti-phospho-BLNK (Y96) Abs (all from Cell Signaling). ELISAs to detect phospho-Syk (Y525/526) were performed according to the manufacturer’s protocol (Cell Signaling).
# Ramos cells (A), human primary monocytes (B), and THP cells (C) were pretreated with inhibitors at the indicated concentrations and stimulated with anti-human IgM (A) and human IgG (B and C). […] The relative intensities of protein phosphorylation levels were quantitated with reference to each lane of β-actin control bands. (D) Ramos cells, human primary monocytes, and THP cells were treated as in A–C for 24 h and levels of phosphorylated Syk (p-Syk) were measured by ELISA.
# [2] = biological target: T2, phosphorylation of Syk in mouse primary B cells (Mus musculus, UniProt P48025); experiment: p-Syk by FACS in stimulated mouse primary B cells; type: cell-based; conditions: BCR and CD40 stimulation
# T2 construct: endogenous in cells; host or cells: mouse primary B cells (splenic CD19+ B cells of C57BL/6 mice)
# T2 sequence (P48025 whole entry): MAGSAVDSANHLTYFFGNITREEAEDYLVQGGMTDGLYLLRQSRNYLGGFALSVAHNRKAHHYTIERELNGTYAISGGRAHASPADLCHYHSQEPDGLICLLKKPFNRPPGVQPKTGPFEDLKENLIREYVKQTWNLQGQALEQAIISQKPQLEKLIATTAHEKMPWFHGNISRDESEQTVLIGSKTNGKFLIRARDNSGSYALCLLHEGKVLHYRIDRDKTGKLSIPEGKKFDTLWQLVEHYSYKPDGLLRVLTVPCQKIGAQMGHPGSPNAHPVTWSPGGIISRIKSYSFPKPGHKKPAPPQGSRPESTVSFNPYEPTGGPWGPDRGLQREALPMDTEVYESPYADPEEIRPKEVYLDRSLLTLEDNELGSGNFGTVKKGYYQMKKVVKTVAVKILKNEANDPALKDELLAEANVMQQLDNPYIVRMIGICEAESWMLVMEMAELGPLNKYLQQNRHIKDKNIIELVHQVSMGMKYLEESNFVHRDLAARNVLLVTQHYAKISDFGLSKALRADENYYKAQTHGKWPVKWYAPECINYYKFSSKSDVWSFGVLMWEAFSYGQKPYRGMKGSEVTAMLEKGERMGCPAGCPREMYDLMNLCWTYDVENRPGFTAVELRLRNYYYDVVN
# From the text: Figure 1: in vitro inhibitory effects of SKI-O-592 and -703 on Syk in B cells and monocytes. Ramos cells (A), human primary monocytes (B), and THP cells (C) were pretreated with inhibitors at the indicated concentrations and stimulated with anti-human IgM (A) and human IgG (B and C). The cells were then lysed and assayed by immunoblotting methods. The relative intensities of protein phosphorylation levels were quantitated with reference to each lane of β-actin control bands. (D) Ramos cells, human primary monocytes, and THP cells were treated as in A–C for 24 h and levels of phosphorylated Syk (p-Syk) were measured by ELISA. (E) Mouse primary B cells were stimulated with anti-IgM mAb for 60 min in the presence or absence of SKI-O-703 and assayed for p-Syk by FACS. A representative FACS profile and data on the dose-response of mean fluorescence intensity (MFI) are shown. The data are representative of two independent experiments.
Structure (SMILES),Ratio to Syk (KOR) (KOR; IC50 ratio to Syk),"IC50 (KOR; kinase activity, TR-FRET)",Ratio to Syk (FGFR2) (FGFR2; IC50 ratio to Syk),"IC50 (FGFR2; kinase activity, TR-FRET)",IC50 [1],Phosphorylation of Syk in mouse primary B cells [2]
Cc1nn(-c2ccnc(Nc3ccc4c(c3)c(C(=O)C3CC3)cn4C)n2)cc1CN1C[C@H](O)CO1 [SKI-O-592],111,0.687 µM,>1623,> 10 µM,0.266 µM,
"CS(=O)(=O)O.CS(=O)(=O)O.Cc1nn(-c2ccnc(Nc3ccc4c(c3)c(C(=O)C3CC3)cn4C)n2)cc1CN1C[C@H](O)CO1 [SKI-O-703, (S)-cyclopropyl(5-((4-(4-((4-hydroxyisoxazolidin-2-yl)methyl)-3-methyl-1H-pyrazol-1-yl)pyrimidin-2-yl)amino)-1-methyl-1H-indol-3-yl)methanone dimesylate]",,,,,,reduced the phosphorylation of Syk
